Test results: publication PMC5377441 (International Journal for Parasitology: Drugs and Drug …, 2017)
Read-outs that look alike come from different tables or passages of the source. Marks after values point to notes of the source that are not given here. Each block holds one molecule with its values, some of them ahead of it.

Assays:
T. muris [1] = experiment: Drug uptake by T. muris in vivo; design: species or system Trichuris muris in C57BL/10 mice; conditions: for drug quantity in worms, maximum: in vivo
adult T. muris = conditions: 72 h, ref Keiser et al., cited from earlier work
H. polygyrus = conditions: oral 100 mg/kg; ref Unpublished data; cited from earlier work
T. muris [2] = conditions: ref Keiser et al., 2013, cited from earlier work
T. muris [3] = experiment: In vitro drug uptake and elimination by T. muris; format: in vitro ADME, Trichuris muris; conditions: for MBZ in worms / OxP in worms: 24 h
[4] = format: in vivo, C57BL/10 mice
adult H. polygyrus = conditions: 100 μM, 72 h; ref Unpublished data; cited from earlier work
trichuriasis = conditions: ref Keiser and Utzinger, 2008; cited from earlier work
[5] = oral 100 mg/kg, rats; ref Cowan et al., 2016; cited from earlier work

- drug quantity in worms, maximum (T. muris [1]): ≤ 21 nmol per ten T. muris
- mebendazole in worms (T. muris [1]; intraperitoneal 100 mg/kg, 2 h): 5 nmol/10 worms
- mebendazole in worms (T. muris [1]; oral 100 mg/kg, unchanged over time, close to LLOQ): 20 nmol/10 worms
- MBZ in worms (T. muris [3]; incubation at 5 μM): 482 ± 388 nmol/10 worms
- MBZ in worms (T. muris [3]; incubation at 10 μM): 626 ± 463 nmol/10 worms
- MBZ in worms (T. muris [3]; incubation at 25 μM): 672 ± 251 nmol/10 worms
- MBZ in worms (T. muris [3]; incubation at 50 μM): 826 ± 390 nmol/10 worms
- MBZ in worms (T. muris [3]; incubation at 75 μM): 910 ± 362 nmol/10 worms
- MBZ in worms (T. muris [3]; incubation at 100 μM): 861 ± 503 nmol/10 worms
- concentration at 2 h ([4]; C57BL/10, mouse, plasma, intraperitoneal, 100 mg/kg): 3.6 µM
- mebendazole in the mucosa of the large intestine ([4]; intraperitoneal 100 mg/kg, 2 h): 1 µmol/g
- mebendazole in the mucosa of the small intestine ([4]; intraperitoneal 100 mg/kg, 2 h): 4 µmol/g
- administered drug in the large intestine ([4]; oral 100 mg/kg, 2 h): 18 µmol/g
- administered drug in the mucosa of the large intestine ([4]; oral 100 mg/kg, 2 h): 3 µmol/g
- administered drug in the mucosa of the small intestine ([4]; oral 100 mg/kg, 2 h): 8 µmol/g
- administered drug in the small intestine ([4]; oral 100 mg/kg, 2 h): 222 µmol/g
- administered drug in the stomach ([4]; oral 100 mg/kg, 2 h): 215 µmol/g
- administered drug in the large intestine ([4]; oral 100 mg/kg, 5 h): 100 µmol/g
- administered drug in the mucosa of the large intestine ([4]; oral 100 mg/kg, 5 h): 5 µmol/g
- administered drug in the mucosa of the small intestine ([4]; oral 100 mg/kg, 5 h): 6 µmol/g
- administered drug in the large intestine ([4]; oral 100 mg/kg, 8 h): 40 µmol/g
- administered drug in the mucosa of the large intestine ([4]; oral 100 mg/kg, 8 h): 2 µmol/g
- administered drug in the mucosa of the small intestine ([4]; oral 100 mg/kg, third value, time not given): 4 µmol/g
Structure (SMILES): COC(=O)Nc1nc2ccc(C(=O)c3ccccc3)cc2[nH]1 [Mebendazole, mebendazole]
- Drug effect (adult T. muris; incubation at >600 μM, 2012): <50% ^b
- Worm burden reduction (H. polygyrus): 59% [100 mg/kg] ^a
- Worm burden reduction (T. muris [2]; oral 150 mg/kg): 68% [150 mg/kg] ^c
- Drug effect (adult H. polygyrus): 0% [100 μM] ^a
- cure rate (trichuriasis): below 36%

Structure (SMILES): CN1CCCN=C1/C=C/c1cccc(O)c1 [Oxantel pamoate, oxantel pamoate]
- EC50 (adult T. muris; serial dilution, 2013): 4 µM

- drug quantity in worms, maximum (T. muris [1]): ≤ 34 nmol per ten T. muris
- oxantel pamoate in worms (T. muris [1]; intraperitoneal 50 mg/kg, 2 h): no compound could be quantified
- oxantel pamoate in worms (T. muris [1]; oral 100 mg/kg, 5 h): 34 nmol/10 worms
- oxantel pamoate in worms (T. muris [1]; oral 100 mg/kg, 8 h): 22 nmol/10 worms
- time after which uptake ceased (T. muris [3]; exposure at 25 μM): 8 h
- OxP in worms (T. muris [3]; incubation at 5 μM): 13 ± 9 nmol/10 worms
- OxP in worms (T. muris [3]; incubation at 10 μM): 27 ± 9 nmol/10 worms
- OxP in worms (T. muris [3]; incubation at 25 μM): 65 ± 5 nmol/10 worms
- OxP in worms (T. muris [3]; incubation at 50 μM): 155 ± 41 nmol/10 worms
- OxP in worms (T. muris [3]; incubation at 75 μM): 169 ± 24 nmol/10 worms
- OxP in worms (T. muris [3]; incubation at 100 μM): 197 ± 46 nmol/10 worms
- oxantel pamoate in the large intestine ([4]; intraperitoneal 50 mg/kg, 2 h): 7 µmol/g
- oxantel pamoate in the mucosal tissue of the large intestine ([4]; intraperitoneal 50 mg/kg, 2 h): 17 µmol/g
- oxantel pamoate in the mucosal tissue of the small intestine ([4]; intraperitoneal 50 mg/kg, 2 h): 2 µmol/g
- oxantel pamoate in the small intestine ([4]; intraperitoneal 50 mg/kg, 2 h): 7 µmol/g
- oxantel pamoate in the stomach ([4]; intraperitoneal 50 mg/kg, 2 h): 5 µmol/g
- oxantel pamoate plasma level ([4]; intraperitoneal 50 mg/kg, 2 h, below the LLOQ): 0.21 µM
- plasma concentration of the administered drug ([4]; oral 100 mg/kg, 2-8 h (all times)): < 0.7 µM
- administered drug in the small intestinal mucosa ([4]; oral 100 mg/kg, 5 and 8 h): 2 µmol/g
- administered drug in the large intestine ([4]; oral 100 mg/kg, 2 h): 6 µmol/g
- administered drug in the mucosa of the small intestine ([4]; oral 100 mg/kg, 2 h): 31 µmol/g
- administered drug in the small intestine ([4]; oral 100 mg/kg, 2 h): 1951 µmol/g
- administered drug in the stomach ([4]; oral 100 mg/kg, 2 h): 5278 µmol/g
- administered drug in the large intestine ([4]; oral 100 mg/kg, 5 h): 359 µmol/g
- administered drug in the small intestine ([4]; oral 100 mg/kg, 5 h): 54 µmol/g
- administered drug in the stomach ([4]; oral 100 mg/kg, 5 h): 302 µmol/g
- administered drug in the large intestine ([4]; oral 100 mg/kg, 8 h): 110 µmol/g
- administered drug in the small intestine ([4]; oral 100 mg/kg, 8 h): 61 µmol/g
- administered drug in the stomach ([4]; oral 100 mg/kg, 8 h): 364 µmol/g
Structure (SMILES): CN1CCCN=C1/C=C/c1cccc(O)c1.O=C(O)c1cc2ccccc2c(Cc2c(O)c(C(=O)O)cc3ccccc23)c1O [Oxantel pamoate, oxantel pamoate]
- oxantel pamoate in plasma [5]: could not quantify
- Worm burden reduction (T. muris [2]; oral 10 mg/kg): 93% [10 mg/kg] ^c
